Results taken from article PMC12106395, “HmuY proteins of the Porphyromonas genus show diversity in heme-binding properties” (Frontiers in Cellular and Infection Microbiology, 2025).

What was measured:
[1] = biological target: T1, HusA^Pg (Porphyromonas gingivalis, UniProt Q7MSY3); test: UV-visible difference absorbance spectroscopy; type: binding; conditions: 5 uM protein, 5 uM PPIX, PBS pH 7.4, room temperature; complex seen by spectroscopy only
T1 construct: gene PG_2227; 8xHis-MBP tag cut off with Factor Xa; E. coli host; strain of the plasmid only in supplement (W83 is the BLAST query strain)
T1 sequence (Q7MSY3 entry or part of it): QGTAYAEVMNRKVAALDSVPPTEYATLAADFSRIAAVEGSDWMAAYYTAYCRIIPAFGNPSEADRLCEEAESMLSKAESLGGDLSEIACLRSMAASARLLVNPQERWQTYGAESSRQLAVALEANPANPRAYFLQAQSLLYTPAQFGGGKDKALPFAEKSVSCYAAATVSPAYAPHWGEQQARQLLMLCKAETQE

[2] = biological target: T2, HmuY^Bf-2 (Bacteroides fragilis, UniProt Q5LGH3); test: UV-visible difference absorbance spectroscopy; semi-denaturing PAGE with fluorescence detection; type: binding; conditions: 5 uM protein, 5 uM PPIX, PBS pH 7.4, room temperature
T2 construct: gene BF9343_0985; 8xHis-MBP tag cut off with Factor Xa; E. coli host
T2 sequence (Q5LGH3 entry or part of it): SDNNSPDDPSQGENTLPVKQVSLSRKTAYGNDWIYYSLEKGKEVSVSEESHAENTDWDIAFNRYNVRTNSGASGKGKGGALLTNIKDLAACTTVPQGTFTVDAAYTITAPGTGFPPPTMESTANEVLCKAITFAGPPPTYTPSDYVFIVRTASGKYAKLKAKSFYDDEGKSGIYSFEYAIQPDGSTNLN

In the case of C=CC1=C(C)c2cc3[nH]c(cc4nc(cc5[nH]c(cc1n2)c(C)c5CCC(=O)O)C(CCC(=O)O)=C4C)c(C)c3C=C [PPIX], the “UV-visible difference absorbance spectroscopy” value [1] was “HmuY^Bf-2, which, similar to HusA^Pg, binds both heme and PPIX” and the “UV-visible difference absorbance spectroscopy; semi-denaturing PAGE with fluores” value [2] was “PPIX binding by HmuY^Bf-2 were detected after electrophoretic separation of proteins and porphyrins”.
